The source of these data is patent US12539287B2, “L-DOPA microbiome therapy” (Iowa State University Research Foundation, Inc., priority 2018, dated 2026).

The conditions of series [1]: Bz 50 mg/kg 3 times/day.
Protocol: Mice were orally administered a single daily dose of 10^9 CFU EcN^2L-DOPA or PBS and also Bz (50 mg/kg) 3 times/day for 1 and 2 days. Plasma samples collected through submandibular sampling prior to EcN^2L-DOPA treatment (serving as baseline), and at 4, 8, 16, 24 and 48 h post-EcN^2L-DOPA and Bz (50 mg/kg) treatment, were assayed for L-DOPA production by HPLC. […] We increased the dose and frequency of Bz because of its short half-life.
The conditions of series [2]: humans; cited from earlier work.
For series [3] the following is noted: cited from earlier work.

As for `NC(CO)C(=O)NNCc1ccc(O)c(O)c1O` (stereo not drawn) [Bz, benserazide], the “duration of Bz plasma levels” value in series [1] is on record as “up to 30 h”.

Take `N[C@@H](Cc1ccc(O)c(O)c1)C(=O)O` [L-DOPA, (−)-L-a-amino-b-(3,4-dihydroxybenzene)propanoic acid]: the “optimal therapeutic plasma levels” value in series [2] was 300 to 1600 ng/mL. Moreover, in series [3], the solubility in water entry was “slightly soluble in water”.
